According to ChEMBL document CHEMBL4483862, “Open-source discovery of chemical leads for next-generation chemoprotective antimalarials” (2018):

Tested on: Plasmodium berghei
Test: Luciferase/luciferin-expressing antifolate-resistant parasites were used to infect a culture of HepG2 cells that were pre-incubated with compounds. Infected hepatocytes emit light due to the luciferase reaction. Assay results are presented as the percent inhibition of light emission compared to control. […]
Assay type: functional
Details: sporozoite; for IC90: read-out: LUCIFERASE INFECTION ASSAY - IC90
[1] = read-out: LUCIFERASE INFECTION ASSAY - IC50

Row | SMILES | IC90 [µM] | IC50 [1] [µM] | also measured
1 | O=C(Nc1ccc(-n2cnc3ccccc32)cc1)c1ccc(NC(=O)C2CC2)cc1 | > 10 |  | IC50 (HEPG2TOX_HILL_SLOPE 1.98, HEPG2TOX_R_SQUARED 0.988, PBLUC_HILL_SLOPE 3.86, PBLUC_R_SQUARED 0.781, read-out: LUCIFERASE INFECTION ASSAY - IC50): 6.59 µM
2 | Cc1ccc(Cn2nc(C)cc2C(=O)Sc2ccccc2)cc1 | > 10.2 | > 10.2 | 
3 | O=C(CN1CC=C(c2ccccc2)CC1)Nc1ccnn1C1CCCC1 | > 10 |  | IC50 (HEPG2TOX_HILL_SLOPE 1.62, HEPG2TOX_R_SQUARED 0.847, PBLUC_HILL_SLOPE 1.87, PBLUC_R_SQUARED 0.673, read-out: LUCIFERASE INFECTION ASSAY - IC50): 5.98 µM
4 | CCCNC(=O)c1c(NC(=O)c2ccccc2)nc2ccc(C)cn12 | 7.77 |  | IC50 (HEPG2TOX_HILL_SLOPE 1.15, HEPG2TOX_R_SQUARED 0.736, PBLUC_HILL_SLOPE 3.57, PBLUC_R_SQUARED 0.289, read-out: LUCIFERASE INFECTION ASSAY - IC50): 4.2 µM
5 | COc1ccc(N(C(C)=O)c2nc(/C=C/C(=O)c3ccc(F)cc3)cs2)cc1 | > 10 |  | IC50 (FFLUC_HILL_SLOPE 11.2, FFLUC_R_SQUARED 0.397, read-out: LUCIFERASE INFECTION ASSAY - IC50): > 10 µM
6 | Oc1cc(C(F)(F)F)nc2ccc(F)cc12 | > 14.3 |  | IC50 (PBLUC_HILL_SLOPE 1.66, PBLUC_R_SQUARED 0.446, read-out: LUCIFERASE INFECTION ASSAY - IC50): 6.54 µM
7 | CCN1C(=O)N(Cc2ccccn2)C(=O)C12CCN(Cc1ccc3c(c1)Cc1ccccc1-3)CC2 | 6.49 |  | IC50 (HEPG2TOX_HILL_SLOPE 46.6, HEPG2TOX_R_SQUARED 0.935, PBLUC_HILL_SLOPE 4.5, PBLUC_R_SQUARED 0.25, read-out: LUCIFERASE INFECTION ASSAY - IC50): 3.98 µM
8 | C=c1ccccc1=C1NN=C(Nc2ccc(F)c(F)c2F)O1 | > 10 |  | IC50 (FFLUC_HILL_SLOPE 1.45, FFLUC_R_SQUARED 0.745, PBLUC_HILL_SLOPE 0.464, PBLUC_R_SQUARED 0.746, read-out: LUCIFERASE INFECTION ASSAY - IC50): 0.97 µM
9 | CC(C)(C)OC(=O)Nc1ccc(C(=O)Nc2cccc(S(=O)(=O)NC3CC3)c2)cc1 | 3.66 |  | IC50 (HEPG2TOX_HILL_SLOPE 12, HEPG2TOX_R_SQUARED 0.663, PBLUC_HILL_SLOPE 19.5, PBLUC_R_SQUARED 0.101, read-out: LUCIFERASE INFECTION ASSAY - IC50): 3.27 µM
10 | Fc1ccc(-c2ccnc3n[nH]c(C4CC4)c23)cc1Cl | > 10 |  | IC50 (HEPG2TOX_HILL_SLOPE 9.31, HEPG2TOX_R_SQUARED 0.217, read-out: LUCIFERASE INFECTION ASSAY - IC50): > 10 µM
11 | Cn1cnnc1-c1cccc(NC(=O)c2ccc(=O)n(Cc3ccccc3)n2)c1 | > 10 | > 10 | 
12 | NC(=O)C(C(=O)/C=C/c1c(Cl)cccc1Cl)=C1SCS1 | > 10 |  | IC50 (PBLUC_HILL_SLOPE 3.86, PBLUC_R_SQUARED 0.315, read-out: LUCIFERASE INFECTION ASSAY - IC50): 6.18 µM
13 | O=c1c2ccccc2[nH]c2ccccc12 [ACRIDONE] | 5.03 |  | IC50 (PBLUC_HILL_SLOPE 1.89, PBLUC_R_SQUARED 0.789, read-out: LUCIFERASE INFECTION ASSAY - IC50): 1.57 µM
14 | COCCN(Cc1nc(=O)c2ccccc2[nH]1)C(=O)c1cc(C(C)(C)C)cc(C(C)(C)C)c1O | > 10 | > 10 | 
15 | CC(=O)Nc1cccc2c1CCN(c1ncnc3sccc13)C2 | 3.46 |  | IC50 (PBLUC_HILL_SLOPE 34.6, PBLUC_R_SQUARED 0.49, read-out: LUCIFERASE INFECTION ASSAY - IC50): 3.25 µM
16 | c1cncc(CCNc2nccn3c(-c4ccc5ccccc5c4)cnc23)c1 | 5.14 |  | IC50 (HEPG2TOX_HILL_SLOPE 2.6, HEPG2TOX_R_SQUARED 0.953, PBLUC_HILL_SLOPE 75.6, PBLUC_R_SQUARED 0.403, read-out: LUCIFERASE INFECTION ASSAY - IC50): 4.99 µM
17 | Cc1nc(NC(=O)c2ccc(C(C)(C)C)cc2)ccc1Br | > 9.5 |  | IC50 (PBLUC_HILL_SLOPE 8.59, PBLUC_R_SQUARED 0.6, read-out: LUCIFERASE INFECTION ASSAY - IC50): 7.43 µM
18 | O=c1c2c3c(sc2nc(SCc2cc(=O)n4ccsc4n2)n1-c1ccccc1C(F)(F)F)CCCCC3 | > 10 |  | IC50 (FFLUC_HILL_SLOPE 12.2, FFLUC_R_SQUARED 0.743, read-out: LUCIFERASE INFECTION ASSAY - IC50): > 10 µM
19 | O=C(C(/C=N/O)=N/Nc1ccc(C(F)(F)F)cc1)c1ccc(Br)cc1 | 3.98 |  | IC50 (FFLUC_HILL_SLOPE 17.5, FFLUC_R_SQUARED 0.273, HEPG2TOX_HILL_SLOPE 2.17, HEPG2TOX_R_SQUARED 0.985, PBLUC_HILL_SLOPE 7.45, PBLUC_R_SQUARED 0.303, read-out: LUCIFERASE INFECTION ASSAY - IC50): 2.96 µM
20 | CCOc1cc(/C=C/C(=O)c2ccc(C)cc2)cc(Br)c1OCC(=O)N(C)C | 3.89 | 3.4 | 
21 | Cc1ccc(OCC(O)CN2CCc3ccccc3C2)c(C)c1 (stereo not given) | > 9.49 | > 9.49 | 
22 | CSc1nc(=NC(=O)NS(=O)(=O)Oc2ccc(Cl)cc2Cl)n2nc(C3CC3)cc2[nH]1 | > 6.74 | > 6.74 | 
23 | FC(F)(F)c1ccc(C2c3ccsc3CCN2C(=S)Nc2ccc(Cl)cc2Cl)cc1 (stereo not given) | > 6.77 | 4.24 | 

Row | SMILES | IC90 [µM] | IC50 [1] [µM] | also measured
24 | Cc1ccc(C(=O)Nc2nc(C(N)Cc3ccccc3)cs2)cc1 (stereo not given) | > 9.78 | > 9.78 | 
25 | COc1cc(CCC2CCN(c3ccc4nnc(C(F)(F)F)n4n3)CC2)cc(OC)c1 | > 10 |  | IC50 (PBLUC_HILL_SLOPE 2.86, PBLUC_R_SQUARED 0.563, read-out: LUCIFERASE INFECTION ASSAY - IC50): 5.92 µM
26 | C=CCSc1nnc(-c2ccc(C(C)(C)C)cc2)n1-c1ccc(Cl)cc1 | > 8.59 |  | IC50 (PBLUC_HILL_SLOPE 0.788, PBLUC_R_SQUARED 0.735, read-out: LUCIFERASE INFECTION ASSAY - IC50): > 8.59 µM
27 | CC1CCc2c(sc3c2C(=O)NC(/C(Br)=C/c2ccccc2)N3)C1 (stereo not given) | 3.94 |  | IC50 (FFLUC_HILL_SLOPE 0.906, FFLUC_R_SQUARED 0.617, HEPG2TOX_HILL_SLOPE 7.13, HEPG2TOX_R_SQUARED 0.573, PBLUC_HILL_SLOPE 13.5, PBLUC_R_SQUARED 0.659, read-out: LUCIFERASE INFECTION ASSAY - IC50): 3.35 µM
28 | CC(C(=O)Nc1ccc(O)cc1)c1ccc2c(c1)[nH]c1ccc(Cl)cc12 (stereo not given) | > 9.05 | > 9.05 | 
29 | CC1CCN(Cc2csc(NC(=O)c3ccc4ncsc4c3)n2)CC1 | > 10 |  | IC50 (HEPG2TOX_HILL_SLOPE 0.129, HEPG2TOX_R_SQUARED 0.115, read-out: LUCIFERASE INFECTION ASSAY - IC50): > 10 µM
30 | COc1ccc(C(=O)Nc2nonc2-c2ccc(F)cc2)cc1Cl | 3.66 | 3.16 | 
31 | COc1cccc(-c2nccc3n[nH]c(-c4ccc(OC)cc4C)c23)c1 | > 10 | 4.5 | 
32 | CCCC(=O)Nc1ccc(-c2csc(NC(=O)c3cc(C)oc3C)n2)cc1 | > 10 | > 10 | 
33 | CC(C)CCn1c(Sc2ccc3nnnn3n2)nc2scc(-c3cccs3)c2c1=O | > 10 | > 10 | 
34 | COc1ccc(CNc2ccc3ncc(-c4ccc(Cl)cc4)n3n2)cc1 | 4.67 |  | IC50 (HEPG2TOX_HILL_SLOPE 3.82, HEPG2TOX_R_SQUARED 0.951, PBLUC_HILL_SLOPE 9.74, PBLUC_R_SQUARED 0.491, read-out: LUCIFERASE INFECTION ASSAY - IC50): 3.73 µM
35 | COc1cc(/C=C/C(=O)Nc2nc3c(s2)CC(C)CC3)cc(OC)c1 (stereo not given) | > 10 | > 10 | 
36 | Cc1nn(Cc2ccccc2Cl)c(C)c1C(=O)OCC(=O)N1CCN(c2ccccc2)CC1 | > 10 | > 10 | 
37 | Cc1ccc(C2=NN(C(=O)c3ccccc3)C(c3ccccc3O)C2)cc1 (stereo not given) | 8.37 |  | IC50 (FFLUC_HILL_SLOPE 4.22, FFLUC_R_SQUARED 0.285, HEPG2TOX_HILL_SLOPE 3.02, HEPG2TOX_R_SQUARED 0.969, PBLUC_HILL_SLOPE 1.84, PBLUC_R_SQUARED 0.813, read-out: LUCIFERASE INFECTION ASSAY - IC50): 2.54 µM
38 | O=C(/C=C/c1cccs1)N1CCN(S(=O)(=O)c2ccc(Cl)c(C(F)(F)F)c2)CC1 | > 10 |  | IC50 (PBLUC_HILL_SLOPE 2.7, PBLUC_R_SQUARED 0.367, read-out: LUCIFERASE INFECTION ASSAY - IC50): 5.47 µM
39 | O=C(CCN1CCN(C(c2ccccc2)c2ccccc2)CC1)NNC(=O)c1ccc(I)cc1 | > 10 | > 10 | 
40 | O=C(NCCC(=O)N1CCc2sccc2C1c1ccccc1)c1ccsc1 (stereo not given) | 5.51 |  | IC50 (PBLUC_HILL_SLOPE 101, PBLUC_R_SQUARED 0.289, read-out: LUCIFERASE INFECTION ASSAY - IC50): 5.39 µM
41 | CC(=O)c1c(C)[nH]c(C(=O)Nc2ccc(Oc3ccccc3Cl)cc2)c1C | 7.08 |  | IC50 (HEPG2TOX_HILL_SLOPE 17, HEPG2TOX_R_SQUARED 0.739, PBLUC_HILL_SLOPE 1.26, 0.690, PBLUC_R_SQUARED 0.562, 0.913, read-out: LUCIFERASE INFECTION ASSAY - IC50): 0.831 µM
42 | Cn1c(Nc2cccc(C(F)(F)F)c2)nc2cnc(-c3ccoc3)cc21 | > 10 | > 10 | 
43 | NC(=O)C1CN(S(=O)(=O)c2cc(Cl)sc2Cl)c2ccccc2O1 (stereo not given) | > 10 | > 10 | 
44 | CN(C1CCCCC1)S(=O)(=O)c1ccc(NC(=S)NC(=O)c2ccco2)cc1 | > 10 |  | IC50 (FFLUC_HILL_SLOPE 2.51, FFLUC_R_SQUARED 0.131, read-out: LUCIFERASE INFECTION ASSAY - IC50): > 10 µM
45 | O=[N+]([O-])c1cc(C(F)(F)F)ccc1Sc1nnc(-c2ccc(Cl)cc2)[nH]1 | > 8.23 |  | IC50 (FFLUC_HILL_SLOPE 0.154, FFLUC_R_SQUARED 0.106, read-out: LUCIFERASE INFECTION ASSAY - IC50): > 8.23 µM
